The supplement of paper PMC10307832

How the values were obtained:
Experiment in all cases: relative viability (nuclei count vs DMSO), 5 days (fraction); higher = more cells survive
ChaGo-K-1 = system: ChaGo-K-1
Summary of the method: (§1)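 For relative viability, nuclei counts in treated wells were divided by those in vehicle wells. Lung cancer cell lines had been pin-tool dosed in 1536-well plates the day after seeding and cultured for 5 days, then fixed and stained in one step (final 0.05% Triton X-100, 1% formaldehyde, 1 ug/ml Hoechst) and imaged at 4×. Doses were one drug alone or a fixed anchor-drug dose plus five library-drug doses (not always all listed) in √10 steps, and values are duplicate-plate medians.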

EKVX = system: EKVX
Summary of the method: as §1

EMC-BAC-2 = system: EMC-BAC-2
Summary of the method: as §1

EPLC-272H = system: EPLC-272H
Summary of the method: as §1

HCC-78 = system: HCC-78
Summary of the method: as §1

HCC-827 = system: HCC-827
Summary of the method: as §1

LCLC-103H = system: LCLC-103H
Summary of the method: as §1

LK-2 = system: LK-2
Summary of the method: as §1

LU99A = system: LU99A
Summary of the method: as §1

NCI-H1563 = system: NCI-H1563
Summary of the method: as §1

NCI-H1666 = system: NCI-H1666
Summary of the method: as §1

NCI-H1975 = system: NCI-H1975
Summary of the method: as §1

NCI-H2126 = system: NCI-H2126
Summary of the method: as §1

NCI-H23 = system: NCI-H23
Summary of the method: as §1

NCI-H2405 = system: NCI-H2405
Summary of the method: as §1

NCI-H322M = system: NCI-H322M
Summary of the method: as §1

PC-14 = system: PC-14
Summary of the method: as §1

RERF-LC-KJ = system: RERF-LC-KJ
Summary of the method: as §1

SK-LU-1 = system: SK-LU-1
Summary of the method: as §1

SW 1573 = system: SW 1573
Summary of the method: as §1

For CC(=O)O[C@@]12CO[C@@H]1C[C@H](O)[C@@]1(C)C(=O)[C@H](O)C3=C(C)[C@@H](OC(=O)[C@H](O)[C@@H](NC(=O)OC(C)(C)C)c4ccccc4)C[C@@](O)([C@@H](OC(=O)c4ccccc4)[C@H]21)C3(C)C [Docetaxel] + C[C@@H](Oc1cc(-c2cnn(C3CCNCC3)c2)cnc1N)c1c(Cl)ccc(F)c1Cl [Crizotinib] (partner 1 µM), the relative viability (ChaGo-K-1; first compound 0.0002 µM) was 1.06, the relative viability (ChaGo-K-1; first compound 0.000632 µM) was 0.813 and the relative viability (ChaGo-K-1; first compound 0.002 µM) was 0.457. For the same compound, the relative viability (ChaGo-K-1; first compound 0.006325 µM) was 0.339, the relative viability (ChaGo-K-1; first compound 0.02 µM) was 0.263 and the relative viability (EKVX; first compound 0.0002 µM) was 0.725. It also gave a relative viability (EKVX; first compound 0.000632 µM) of 0.885, a relative viability (EKVX; first compound 0.002 µM) of 0.432 and a relative viability (EKVX; first compound 0.006325 µM) of 0.25. For the same compound, the relative viability (EKVX; first compound 0.02 µM) was 0.145, the relative viability (EMC-BAC-2; first compound 0.0002 µM) was 0.651 and the relative viability (EMC-BAC-2; first compound 0.000632 µM) was 0.401. It also gave a relative viability (EMC-BAC-2; first compound 0.002 µM) of 0.404, a relative viability (EMC-BAC-2; first compound 0.02 µM) of 0.161 and a relative viability (EPLC-272H; first compound 0.0002 µM) of 0.832. The relative viability (EPLC-272H; first compound 0.000632 µM) was 0.547, the relative viability (EPLC-272H; first compound 0.002 µM) was 0.321 and the relative viability (EPLC-272H; first compound 0.006325 µM) was 0.0867. It also gave a relative viability (EPLC-272H; first compound 0.02 µM) of 0.1, a relative viability (HCC-78; first compound 0.0002 µM) of 0.33 and a relative viability (HCC-78; first compound 0.000632 µM) of 0.32. The relative viability (HCC-78; first compound 0.002 µM) was 0.245, the relative viability (HCC-78; first compound 0.006325 µM) was 0.308 and the relative viability (HCC-78; first compound 0.02 µM) was 0.223. For the same compound, the relative viability (HCC-827; first compound 0.0002 µM) was 0.943, the relative viability (HCC-827; first compound 0.000632 µM) was 0.91 and the relative viability (HCC-827; first compound 0.002 µM) was 0.68. The relative viability (HCC-827; first compound 0.006325 µM) was 0.416, the relative viability (HCC-827; first compound 0.02 µM) was 0.342 and the relative viability (LCLC-103H; first compound 0.0002 µM) was 1.19. It also gave a relative viability (LCLC-103H; first compound 0.000632 µM) of 1.04, a relative viability (LCLC-103H; first compound 0.002 µM) of 0.776 and a relative viability (LCLC-103H; first compound 0.006325 µM) of 0.674. It also gave a relative viability (LCLC-103H; first compound 0.02 µM) of 0.756, a relative viability (LK-2; first compound 0.0002 µM) of 0.209 and a relative viability (LK-2; first compound 0.000632 µM) of 0.202. The relative viability (LK-2; first compound 0.002 µM) was 0.228, the relative viability (LK-2; first compound 0.006325 µM) was 0.213 and the relative viability (LK-2; first compound 0.02 µM) was 0.228. For the same compound, the relative viability (LU99A; first compound 0.0002 µM) was 0.522, the relative viability (LU99A; first compound 0.000632 µM) was 0.401 and the relative viability (LU99A; first compound 0.002 µM) was 0.367. The relative viability (LU99A; first compound 0.006325 µM) was 0.278, the relative viability (LU99A; first compound 0.02 µM) was 0.196 and the relative viability (NCI-H1563; first compound 0.0002 µM) was 0.829. The relative viability (NCI-H1563; first compound 0.000632 µM) was 0.926, the relative viability (NCI-H1563; first compound 0.002 µM) was 0.928 and the relative viability (NCI-H1563; first compound 0.006325 µM) was 0.799. The relative viability (NCI-H1563; first compound 0.02 µM) was 0.77, the relative viability (NCI-H1666; first compound 0.0002 µM) was 0.67 and the relative viability (NCI-H1666; first compound 0.000632 µM) was 0.508. The relative viability (NCI-H1666; first compound 0.002 µM) was 0.337, the relative viability (NCI-H1666; first compound 0.006325 µM) was 0.259 and the relative viability (NCI-H1666; first compound 0.02 µM) was 0.24. For the same compound, the relative viability (NCI-H1975; first compound 0.0002 µM) was 0.861, the relative viability (NCI-H1975; first compound 0.000632 µM) was 0.483 and the relative viability (NCI-H1975; first compound 0.002 µM) was 0.23. It also gave a relative viability (NCI-H1975; first compound 0.006325 µM) of 0.192, a relative viability (NCI-H1975; first compound 0.02 µM) of 0.142 and a relative viability (NCI-H2126; first compound 0.0002 µM) of 1.01. The relative viability (NCI-H2126; first compound 0.000632 µM) was 1.03, the relative viability (NCI-H2126; first compound 0.002 µM) was 0.632 and the relative viability (NCI-H2126; first compound 0.006325 µM) was 0.382. For the same compound, the relative viability (NCI-H2126; first compound 0.02 µM) was 0.322, the relative viability (NCI-H23; first compound 0.0002 µM) was 0.534 and the relative viability (NCI-H23; first compound 0.000632 µM) was 0.412. It also gave a relative viability (NCI-H23; first compound 0.002 µM) of 0.271, a relative viability (NCI-H23; first compound 0.006325 µM) of 0.189 and a relative viability (NCI-H23; first compound 0.02 µM) of 0.113. The relative viability (NCI-H2405; first compound 0.0002 µM) was 0.87, the relative viability (NCI-H2405; first compound 0.000632 µM) was 0.623 and the relative viability (NCI-H2405; first compound 0.002 µM) was 0.447. It also gave a relative viability (NCI-H2405; first compound 0.006325 µM) of 0.396, a relative viability (NCI-H2405; first compound 0.02 µM) of 0.292 and a relative viability (NCI-H322M; first compound 0.0002 µM) of 0.817. The relative viability (NCI-H322M; first compound 0.000632 µM) was 0.91, the relative viability (NCI-H322M; first compound 0.002 µM) was 0.71 and the relative viability (NCI-H322M; first compound 0.006325 µM) was 0.233. For the same compound, the relative viability (NCI-H322M; first compound 0.02 µM) was 0.405, the relative viability (PC-14; first compound 0.0002 µM) was 0.932 and the relative viability (PC-14; first compound 0.000632 µM) was 0.861. For the same compound, the relative viability (PC-14; first compound 0.002 µM) was 0.317, the relative viability (PC-14; first compound 0.006325 µM) was 0.0812 and the relative viability (PC-14; first compound 0.02 µM) was 0.0748. For the same compound, the relative viability (RERF-LC-KJ; first compound 0.0002 µM) was 0.868, the relative viability (RERF-LC-KJ; first compound 0.000632 µM) was 0.7 and the relative viability (RERF-LC-KJ; first compound 0.002 µM) was 0.509. The relative viability (RERF-LC-KJ; first compound 0.006325 µM) was 0.196, the relative viability (RERF-LC-KJ; first compound 0.02 µM) was 0.166 and the relative viability (SK-LU-1; first compound 0.0002 µM) was 0.692. It also gave a relative viability (SK-LU-1; first compound 0.000632 µM) of 0.567, a relative viability (SK-LU-1; first compound 0.002 µM) of 0.379 and a relative viability (SK-LU-1; first compound 0.006325 µM) of 0.249. It also gave a relative viability (SK-LU-1; first compound 0.02 µM) of 0.272, a relative viability (SW 1573; first compound 0.0002 µM) of 0.737 and a relative viability (SW 1573; first compound 0.000632 µM) of 0.307. It also gave a relative viability (SW 1573; first compound 0.006325 µM) of 0.218 and a relative viability (SW 1573; first compound 0.02 µM) of 0.203.
